# Experimental data taken from patent publication US20120004188A1, “USE OF RANOLAZINE FOR TREATING PULMONARY HYPERTENSION” (Gilead Sciences, Inc., priority 2010, published 2012).
# Like-named read-outs stand apart in the source and are kept apart here.
# How the values were obtained:
# [1] = tested on: MCT-induced PAH and RV dysfunction; experiment: Monocrotaline (MCT)-induced chronic PAH and RV dysfunction model in rats; format: in vivo, Male Sprague-Dawley rats; conditions: for RV hypertrophy, RV(milligrams)/LV(milligrams) / plasma BNP levels / decrease in RV ejection fraction: day 28; for RV hypertrophy, RV(milligrams)/LV(milligrams): MCT 0.55±0.04; for plasma BNP levels: MCT 590±106, control 170±90; for decrease in RV ejection fraction: MCT −47±7%; for pulmonary systolic pressure: MCT 84±7, control 29±1; for RV systolic pressure: MCT 86±7, control 26±1
# Description: As is discussed in detail hereinabove, ranolazine is an anti-anginal drug that inhibits the late sodium current (INa) in cardiomyocytes. Late INa is increased during conditions of ischemia and hypoxia, and causes intracellular Ca^2+ overload by increasing the amount of intracellular Na^+ available for exchange via the Na^+—Ca^2+ exchanger (NCX). […] Monocrotaline or MCT (a poisonous crystalline alkaloid found in a leguminous plant of the genus Crotalaria) induces progressive pulmonary arterial hypertension (PAH) in rats that results in RV hypertrophy, contractile dysfunction, and eventually RV failure. Both human PAH and MCT-induced PAH models are characterized by hypoxia and increased ROS production but the role of late INa in this model has not been investigated. Therefore, the present example evaluates the efficacy of RAN to prevent MCT-induced PAH and RV dysfunction. Male Sprague-Dawley rats were given a single injection of MCT (60 milligrams per kilogram, s.c.) at study inception and randomized into three groups; MCT, low dose RAN (0.25% weight of RAN over weight of chow), and high dose (0.5% weight of RAN over weight of chow) RAN. RAN was given in diet for 28 days mixed in standard rodent chow containing 0.25% or 0.5% RAN for low and high doses, respectively. These concentrations of RAN yielded plasma concentrations of 1-2 micromolar and 5-7 micromolar, respectively. A control group received a sub-cutaneous (s.c.) saline injection and was fed standard rodent chow. Pulmonary hemodynamics, RV function, and RV hypertrophy was assessed at endpoint (day 28 following MCT administration). Alpha-smooth muscle actin (α-SMA) staining on lung tissue sections were carried out to assess pulmonary vascular remodeling at day 28 as well.
# [2] = Plasma concentration of RAN given in diet to rats; format: in vivo; conditions: male, Sprague-Dawley, oral, rat, read-out: plasma concentrations
# Description: Male Sprague-Dawley rats were given a single injection of MCT (60 milligrams per kilogram, s.c.) at study inception and randomized into three groups; MCT, low dose RAN (0.25% weight of RAN over weight of chow), and high dose (0.5% weight of RAN over weight of chow) RAN. RAN was given in diet for 28 days mixed in standard rodent chow containing 0.25% or 0.5% RAN for low and high doses, respectively. These concentrations of RAN yielded plasma concentrations of 1-2 micromolar and 5-7 micromolar, respectively. A control group received a sub-cutaneous (s.c.) saline injection and was fed standard rodent chow. Pulmonary hemodynamics, RV function, and RV hypertrophy was assessed at endpoint (day 28 following MCT administration). Alpha-smooth muscle actin (α-SMA) staining on lung tissue sections were carried out to assess pulmonary vascular remodeling at day 28 as well.
# [3] = tested on: right ventricular remodeling following acute myocardial infarction; experiment: Murine model of large anterior wall acute myocardial infarction (permanent ligation of the left coronary artery); format: in vivo, Male Imprinting Control Region (ICR) mice; conditions: 30 mg/kg i.p. every 6 hours for 7 days
# Procedure: Male Imprinting Control Region (ICR) mice underwent permanent coronary artery ligation of the left coronary artery and treated with vehicle (saline) or ranolazine 30 mg/kg i.p. every 6 hours (N=10-12 per group) for 7 days starting at the time of ligation. Infarct size was measured early using Masson's trichrome staining. Transthoracic echocardiography was performed prior to surgery and 7 days later to measure left ventricular and right ventricular dimensions and function.
# [4] = tested on: pulmonary hypertension or PAH; experiment: Right ventricular function, exercise capacity and quality of life in patients with pulmonary hypertension or PAH; format: in vivo; conditions: contemplated result
# Description: To ascertain the improvement in right ventricular function in patients suffering from pulmonary hypertension or pulmonary arterial hypertension (PAH), the following parameters are examined: • Exercise capacity and quality of life • RV subendocardial perfusion using adenosine cardiac MRI studies • Exercise-induced changes in RV function determined non-invasively using comprehensive Doppler and tissue Doppler echocardiography along with determination of right ventricular—pulmonary vascular coupling and pulmonary vascular impedance spectra • RV contractility and comprehensive pressure-volume analysis using invasive hemodynamics, 2D and 3D echocardiography, and cardiac MRI Note that the aforementioned endpoints use a combination of invasive and non-invasive techniques. Echocardiography techniques are best suited for exercise studies. Echocardiographic RV volume data can be normalized to MRI RV volume data, and echocardiographic estimation of RV pressures can be normalized to invasive RV pressure data, thereby increasing the accuracy of echocardiographic analysis of RV structure and function.
# [5] = high dose RAN (0.5% in chow), day 28 after MCT
# [6] = echocardiography at day 7, versus vehicle-treated mice
smiles,measurement,setting,value
"COc1ccccc1OCC(O)CN1CCN(CC(=O)Nc2c(C)cccc2C)CC1 (racemic) [ranolazine, ±-N-(2,6-dimethylphenyl)-4-[2-hydroxy-3-(2-methoxyphenoxy)-propyl]-1-piperazineacetamide]","MCT induced changes (PAH and RV dysfunction), overall","[1]; 0.25% and 0.5% RAN in chow, 28 days",significantly and dose-dependently attenuated
same,"RV hypertrophy, RV(milligrams)/LV(milligrams)",[1]; high dose RAN (0.5% in chow),0.32±0.03
same,plasma BNP levels,[1]; high dose RAN (0.5% in chow),60±20 picograms/milliliter
same,decrease in RV ejection fraction,[1]; high dose RAN (0.5% in chow),−10±8%
same,pulmonary systolic pressure,[1]; [5],40±4 millimeters Hg
same,RV systolic pressure,[1]; [5],39±4 millimeters Hg
same,"RV hypertrophy, RV(milligrams)/LV(milligrams)",[1]; low dose RAN (0.25% in chow),0.4±0.03
same,plasma BNP levels,[1]; low dose RAN (0.25% in chow),180±30 picograms/milliliter
same,decrease in RV ejection fraction,[1]; low dose RAN (0.25% in chow),−17±11%
same,pulmonary systolic pressure,"[1]; low dose RAN (0.25% in chow), day 28 after MCT 60 mg/kg s.c.",59±5 millimeters Hg
same,RV systolic pressure,"[1]; low dose RAN (0.25% in chow), day 28 after MCT",58±5 millimeters Hg
same,pulmonary vascular remodeling in intra-acinar arteries (ratio of vessel wall thickness to lumen diameter),"[1]; α-SMA staining of lung sections, day 28, compared to MCT animals",significantly reduced remodeling
same,concentration at 28 days,"[2]; 0.25 % weight of RAN over weight of chow, low dose RAN, 0.25% in chow",1 to 2 µM
same,concentration at 28 days,"[2]; 0.5 % weight of RAN over weight of chow, high dose RAN, 0.5% in chow",5 to 7 µM
same,infarct size,[3]; Masson's trichrome staining,absence of any measurable effects
same,LV function and dimension,[3]; echocardiography at day 7,absence of any measurable effects
same,RV dimension (RV diastolic and systolic areas),[3]; [6],significant preservation
same,RV function (TAPSE and RV fractional area change),[3]; [6],significant preservation
same,exercise capacity and quality of life,[4],improve exercise capacity and quality of life
same,pain associated with pulmonary hypertension or PAH,[4],ameliorates pain
